According to US8822519B2, “Compound with agitation effect on peroxisome proliferator-activated receptor process for its preparation and use thereof” (Zhejiang Hisun Pharmaceutical Co., Ltd., priority 2008, dated 2014):
pEC50: −log10 of the molar value. Values belong to the molecule of their own block, whether it stands above or below them.

Tests used:
[1] = test system: high fat fodder obese C57BL/6J mice; assay: High fat fodder obese mice: levels of blood lipid and blood glucose; assay type: in vivo; parameters: HDL / GLU / TC / TG: unit not given here; conditions: for GLU / HDL / TG / TC: mean ± s, n 5
Text: 3 week-old male C57BL/6J mice were chosen as experiment animals, 15 of which were randomly selected to feed with a standard fodder, and the remains were allowed to feed with a high fat fodder, with each of the mice being marked by ear-cutting. The body weights and fodder intake of the mice were weighed every week. […] […], the effects of the medicaments on the levels of blood lipid and blood glucose, body weight, and fodder intake in the animals were observed, while a glucose tolerance test was performed to investigate the effects of the medicaments on the glucose tolerance in the animals.

[2] = test system: high fat fodder obese C57BL/6J mice; assay: High fat fodder obese mice: body weight and food intake; assay type: in vivo
Text: (§1) 3 week-old male C57BL/6J mice were chosen as experiment animals, 15 of which were randomly selected to feed with a standard fodder, and the remains were allowed to feed with a high fat fodder, with each of the mice being marked by ear-cutting. The body weights and fodder intake of the mice were weighed every week. […] After the administration of the inventive compounds for four weeks, the effects of the medicaments on the levels of blood lipid and blood glucose, body weight, and fodder intake in the animals were observed, while a glucose tolerance test was performed to investigate the effects of the medicaments on the glucose tolerance in the animals.

PPARδ = target: T1, PPARδ (Homo sapiens, UniProt Q03181); assay: In vitro screening of nuclear receptor agonist: luciferase reporter gene assay in HepG2 cells; assay type: cell-based; conditions: RXR/PPARδ luciferase reporter gene, 24 h treatment
T1 construct: expressed in transfected cells; host or cells: HepG2 (human hepatocarcinoma, ATCC)
T1 sequence (Q03181 1-441): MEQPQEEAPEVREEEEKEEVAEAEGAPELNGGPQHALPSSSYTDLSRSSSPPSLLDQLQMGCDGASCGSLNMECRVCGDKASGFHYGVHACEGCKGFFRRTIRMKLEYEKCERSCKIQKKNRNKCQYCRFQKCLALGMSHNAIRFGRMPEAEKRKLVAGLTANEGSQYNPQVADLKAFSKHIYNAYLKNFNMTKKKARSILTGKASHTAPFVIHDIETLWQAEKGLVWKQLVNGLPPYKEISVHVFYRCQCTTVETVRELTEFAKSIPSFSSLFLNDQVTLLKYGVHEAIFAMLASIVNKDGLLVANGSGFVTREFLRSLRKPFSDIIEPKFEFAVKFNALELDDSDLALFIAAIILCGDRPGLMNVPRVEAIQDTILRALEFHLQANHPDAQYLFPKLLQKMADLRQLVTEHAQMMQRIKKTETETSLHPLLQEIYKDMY
T1 sequence (P19793 1-462 partner): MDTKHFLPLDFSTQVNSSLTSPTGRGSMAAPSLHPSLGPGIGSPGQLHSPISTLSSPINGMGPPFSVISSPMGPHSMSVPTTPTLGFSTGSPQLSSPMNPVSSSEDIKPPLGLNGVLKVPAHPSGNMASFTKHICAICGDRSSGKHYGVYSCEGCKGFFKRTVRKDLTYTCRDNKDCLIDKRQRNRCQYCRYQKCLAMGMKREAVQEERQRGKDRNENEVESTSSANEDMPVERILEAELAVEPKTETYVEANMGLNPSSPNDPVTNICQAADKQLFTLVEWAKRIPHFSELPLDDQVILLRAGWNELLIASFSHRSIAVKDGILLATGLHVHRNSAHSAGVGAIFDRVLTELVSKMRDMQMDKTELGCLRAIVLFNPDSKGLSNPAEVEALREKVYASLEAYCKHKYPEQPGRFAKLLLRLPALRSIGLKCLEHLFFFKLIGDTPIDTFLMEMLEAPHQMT
Text: Using a reporter gene protocol, the screening model for screening a nuclear receptor agonist in a living cell is designed on a basis of the principal that an activated nuclear receptor can activate transcription of its downstream gene. A reporter gene plasmid is constructed, in which the DNA binding sequence for the nuclear receptor (NRE) is inserted upstream of the luciferase gene, so that the expression of the luciferase gene is placed under the control of the nuclear receptor. Then, the reporter gene plasmid and the nuclear receptor are simultaneously transferred into a cell, and the nuclear receptor is activated when the nuclear receptor agonist is present in the cell culture medium. Then the activated receptor is able to induce the expression of the luciferase gene, while the amount of the luciferase can be determined through its luminous substrate. In this way, the intensity of activation by the compound on the nuclear receptor could be known by observing the luminescence intensity.
The specific operation is described as follows:
The experiment reagents: the compounds to be tested (20 mM, in DMSO, stored at −80° C.).
The hepatocarcinoma cell HepG2 (from ATCC, American Type Culture Collection) was cultured in DMEM medium supplemented with 10% heat-inactivated fetal bovine serum (FBS, Invitogen, Grand Island, N.Y., USA) in a T-75 culture bottle (Greiner, Germany) in a incubator at 37° C., the relative humidity of 100%, and 5% CO2. When the cell culture in the culture bottle reached 80-90% confluency, it was digested with 0.25% Trypsin (with EDTA) for 3 min and inoculated into a 96-well cell culture plate at an inoculating density of 2000 cells/100 μl/well.
In the next day, when the cells in the 96-well culture plate grew up to 50-80% confluency, cell transfection was performed. The cell co-transfection system comprised the FuGene6 transfection agent (Roche Molecular Biochemicals, Indianapolis, Ind., U.S.A.) and 60 ng DNA (long of hRXR, 10 ng of pCMV βGal, 10 ng of the nuclear receptor expression plasmid RXR/PPARδ, 30 ng of GFP fluorescence reporter gene plasmid, respectively).
The cell culture medium was discarded immediately at 24 hours post-transfection and replaced by 200 μl of a fresh DMEM medium containing the medicament to be tested (with 10% FBS treated by activated carbon).
24 h after treatment with the medicament, the cells were lysed with a lysis solution (Cell Culture Lysis buffer, Promega) and centrifuged, and the supernatant was collected. The supernatant was treated with a fluorescence detection kit (Promega) and counted by a fluorescence meter (Ascent Fluoroskan FL reader, Thermo Labsystems, Finland), and the relative intensity of the luciferase was determined. For assaying the β-galactosidase activity used in the experiment as the inner reference (the inner reference calibrating for the transfection efficiency), 50 μl of the supernatant was transferred into a fresh microplate and treated with the Promega kit and read at a wavelength of 405 nm from a microplate reader (Bio-tech Instruments Inc., Winooski, Vt., USA) (Sauerberg, P.; Olsen, G. S.; Jeppesen, L.; Mogensen, J. P. et al., J. Med. Chem., 2007, 50, 1495-1503).
The median effective concentration (EC50) of a sample is a concentration at which the sample has 50% pharmacological effect. This value is one of the important parameters for evaluating pharmacological effects of a compound. In the present screening process, the EC50 of a sample was calculated according to the activation of the receptor by the sample at six different concentrations.

[3] = test system: high fat fodder obese C57BL/6J mice; assay: Oral glucose tolerance test in obese mice; assay type: in vivo; conditions: FIG. 2, in words
Method: The abscissa represents blood-sampling time points, 0 min, 30 min, 60 min, 120 min after orally given with glucose; the ordinate represents the corresponding blood glucose level (mmol/L).
as §1

[4] = clinical research, Oliver et al. 2001; cited from earlier work
Tissue distribution = assay type: in vivo, SD rats
Method: 18 of SD rats were fasting for 16 h with free access for water, assigned them into 3 groups with 6 animals/group with a female-to-male ratio of 1:1; they were dosed with HS060098 (10 mg/kg), then the animals were sacrificed at 1, 10, and 24 h after dosing, and the heart, liver, spleen, lung, kidney in each animal were removed rapidly. The tainted blood on the surface of the organ was washed off immediately with physiological saline. The tissue from the organ was dissected apart, washed thoroughly, blotted off, weighed, supplemented with physiological saline at 400 mg/ml, homogenized in an ice bath for 1 min, and centrifuged at 3750 rpm for 20 min. 400 μl of the supernatant was pipetted precisely, followed by addition of 40 μl of an inner standard (HS060001 used as the inner standard with a molar concentration of 5 mmol/L), diluted with 3 ml of purified water, vortexed to homogeneity, and loaded onto a column (SPE C18 column was firstly washed with 3 ml of purified water, and sequentially with 3 ml of 10% methanol for activation). The column was rinsed with 3 ml of purified water at 1 ml/min, and then eluted with 3 ml of a elutant (methanol: purified water=9:1). The eluate was collected and blow-dried under a nitrogen flow at 45° C. The residue was dissolved in 400 μl of acetonitrile and then a HPLC insert was placed and followed by injection of the sample.

[5] = Pharmacokinetics: plasma concentration-time curve; assay type: in vivo; conditions: both sexes, rat, plasma, oral, SD rats, gastric lavage, 50, 10 and 2 mg/kg
Method: The dosing volume was 10 ml/kg, and blood samples of 0.4-0.5 ml were taken from the vena orbitalis posterior of the waken animals at different time points post-gastric lavage and centrifuged at 5000 rpm for 10 min. 200 μL of plasma sample was precisely measured, then supplemented with 200 μL acetonitrile, vortexed to evenness, left stand for 5 min, and centrifuged (14000 rpm, 5 min). The supernatant was collected and then centrifuged again (14000 rpm, 5 min). The resulting supernatant was gathered and subjected to HPLC injection. Time points for blood sampling were respectively: 0, 0.5, 1, 2, 4, 6, 8, 10, 12, 24, 36, 48 and 72 h, and the peak area for each time point was the average of those obtained from 6 rats at the same time point. Plasma concentrations were calculated and the medicament concentration-time curve was plotted.

[6] = 2 weeks administration, 3.3 mg/kg
[7] = 2 weeks administration, 10 mg/kg
[8] = 4 weeks administration, 3.3 mg/kg
[9] = 4 weeks administration, 10 mg/kg
[10] = distribution in organs, SD rats, 10 mg/kg

SMILES: Cc1cc(SCc2sc(-c3ccc(C(F)(F)F)cc3)nc2C)ccc1OCC(=O)O [GW501516]
- decrease the level of insulin [4]: up to 48%
- decrease the level of triglyceride (TG) [4]: up to 56%
- increase the level of high density lipoprotein (HDL) cholesterol [4]: up to 80%
- lower the level of low density lipoprotein (LDL) cholesterol [4]: up to 29%

SMILES: Cc1cc(SC(c2ccccc2)c2nn(-c3ccc(C(F)(F)F)cc3)c(=O)n2C)ccc1OC(C)C(=O)O (stereo not shown) [Compound A-13, 2-methyl-2-(2-methyl-4-(1-(3-(4-methyl-5-oxo-1-(4-trifluoromethyl-phenyl)-4,5-dihydrogen-1H-1,2,4-triazolyl))-benzylthio)-phenoxy)-acetic acid]
- pEC50 (PPARδ): 7.70

SMILES: Cc1cc(OC(c2ccccc2)c2nn(-c3ccc(C(F)(F)F)cc3)c(=O)n2C)ccc1OCC(=O)O (stereo not shown) [Compound A-1, 2-(2-methyl-4-(1-(3-(4-methyl-5-oxo-1-(4-trifluoromethyl-phenyl)-4,5-dihydrogen-1H-1,2,4-triazolyl))-benzyloxy)-phenoxy)-acetic acid]
- Heart (Tissue distribution; [10]): 6%
- Kidney (Tissue distribution; [10]): 9%
- Liver (Tissue distribution; [10]): 65%
- Lung (Tissue distribution; [10]): 11%
- Spleen (Tissue distribution; [10]): 9%
- tissue distribution (Tissue distribution; in words): distribute mainly in liver
- half-life [5]: 26 to 28 h
- bioavailability ([5]; read-out: bioavailability): 15%
- pEC50 (PPARδ): 6.33

SMILES: Cc1cc(SCc2nn(-c3ccc(C(F)(F)F)cc3)c(=O)n2C)ccc1OCC(=O)O [Compound A-8, 2-(2-methyl-4-(3-(4-methyl-5-oxo-1-(4-trifluoromethyl-phenyl)-4,5-dihydrogen-1H-1,2,4-triazolyl)-methylthio)-phenoxy)-acetic acid]
- pEC50 (PPARδ): 5.52

Second part, led by results:

- pEC50 (PPARδ): > 9.00
SMILES: Cc1cc(SCC(=O)O)c(C)cc1OC(c1ccccc1)c1nn(-c2ccc(C(F)(F)F)cc2)c(=O)n1C (stereo not shown) [Compound A-11, 2-(2,5-dimethyl-4-(1-(3-(4-methyl-5-oxo-1-(4-trifluoromethyl-phenyl)-4,5-dihydrogen-1H-1,2,4-triazolyl))-benzyloxy)-phenylthio)-acetic acid]
- GLU [1, 6]: 8.85 ± 2.13
- HDL [1, 6]: 3.25 ± 1.29
- TG [1, 6]: 0.21 ± 0.08
- GLU [1, 7]: 6.51 ± 1.61
- HDL [1, 7]: 2.39 ± 1.36
- TC [1, 7]: 4.51 ± 0.37
- TG [1, 7]: 0.16 ± 0.06
- GLU [1, 8]: 7.61 ± 0.5
- HDL [1, 8]: 3.83 ± 0.1
- TC [1, 8]: 5.84 ± 0.21
- TG [1, 8]: 0.12 ± 0.05
- GLU [1, 9]: 6.93 ± 0.3
- HDL [1, 9]: 2.84 ± 1.09
- TC [1, 9]: 5.28 ± 0.48
- TG [1, 9]: 0.15 ± 0.05
- levels of TG and GLU in the sera from the model animals ([1]; in words): significantly decrease
- Food intake ([2]; column 1, 3.3 mg/kg): 6.0 g
- Food intake ([2]; column 1, 10 mg/kg): 7.2 g
- Food intake ([2]; column 2, 3.3 mg/kg): 5.0 g
- Food intake ([2]; column 2, 10 mg/kg): 5.2 g
- Food intake ([2]; column 3, 3.3 mg/kg): 5.8 g
- Food intake ([2]; column 3, 10 mg/kg): 6.0 g
- Food intake ([2]; column 4, 3.3 mg/kg): 6.2 g
- Food intake ([2]; column 4, 10 mg/kg): 6.4 g
- Food intake ([2]; column 5, 3.3 mg/kg): 6.9 g
- Food intake ([2]; column 5, 10 mg/kg): 6.9 g
- effect on the food intake of the animals ([2]; in words): no significant effect
- body weight of the animals ([2]; in words, Table 4 and FIG. 1): significantly decrease
- glucose tolerance in the obese animals [3]: significantly improve the glucose tolerance

- pEC50 (PPARδ): > 9.00
SMILES: CCCCn1c(C(Sc2cc(C)c(OCC(=O)O)cc2C)c2ccccc2)nn(-c2ccc(C(F)(F)F)cc2)c1=O (stereo not shown) [Compound A-19, 2-(2,5-dimethyl-4-(1-(3-(4-n-butyl-5-oxo-1-(4-trifluoromethyl-phenyl)-4,5-dihydrogen-1H-1,2,4-triazolyl))-benzylthio)-phenoxy)-acetic acid]
